{"source": "ChEMBL document CHEMBL1649527", "about": "“Daptomycin rapidly penetrates a Staphylococcus epidermidis biofilm” (Antimicrob Agents Chemother, 2009)", "key": {"[1]": {"tested_on": "Staphylococcus epidermidis", "assay": "(§1) Permeability of rhodamine-tagged compound across Staphylococcus epidermidis RP62A biofilms with 217 micrometer radial dimensions and 115 micrometer orthogonal dimensions assessed as time required for fluorescence intensity in centre of biofilm cluster to reach 50% of steady state maximum bulk fluid fluorescence intensity", "type": "ADME, organism-based", "details": "in vivo"}, "[2]": {"tested_on": "Staphylococcus epidermidis", "assay": "Permeability of unlabeled compound across Staphylococcus epidermidis RP62A biofilms assessed as diffusion coefficient at 23 degC by time lapse confocal scanning microscop", "type": "ADME, organism-based", "details": "in vivo"}, "[3]": {"tested_on": "Staphylococcus epidermidis", "assay": "as §1, with “Bodipy-tagged” for “rhodamine-tagged”, “278” for “217”, “168” for “115”", "type": "ADME, organism-based", "details": "in vivo"}, "[4]": {"tested_on": "Staphylococcus epidermidis", "assay": "as §1, with “Bodipy-tagged” for “rhodamine-tagged”, “181” for “217”, “103” for “115”", "type": "ADME, organism-based", "details": "in vivo"}, "[5]": {"tested_on": "Staphylococcus epidermidis", "assay": "Permeability of rhodamine-tagged compound across Staphylococcus epidermidis RP62A biofilms assessed as diffusion coefficient at 23 degC by time lapse confocal scanning microscopy", "type": "ADME, organism-based", "details": "in vivo"}, "[6]": {"tested_on": "Staphylococcus epidermidis", "assay": "as §1, with “207” for “217”, “97” for “115”", "type": "ADME, organism-based", "details": "in vivo"}, "[7]": {"assay": "Aqueous diffusion coefficient of Bodipy-tagged compound at 23 degC by time lapse confocal scanning microscopy", "type": "physicochemical", "details": "buffer"}, "[8]": {"assay": "Aqueous diffusion coefficient of rhodamine-tagged compound at 23 degC by time lapse confocal scanning microscopy", "type": "physicochemical", "details": "buffer"}, "[9]": {"tested_on": "Staphylococcus epidermidis", "assay": "as §1, with “94” for “217”, “63” for “115”", "type": "ADME, organism-based", "details": "in vivo"}, "[10]": {"tested_on": "Staphylococcus epidermidis", "assay": "as §1, with “Bodipy-tagged” for “rhodamine-tagged”, “223” for “217”, “153” for “115”", "type": "ADME, organism-based", "details": "in vivo"}, "[11]": {"tested_on": "Staphylococcus epidermidis", "assay": "Permeability of Bodipy-tagged compound across Staphylococcus epidermidis RP62A biofilms assessed as diffusion coefficient at 23 degC by time lapse confocal scanning microscopy", "type": "ADME, organism-based", "details": "in vivo"}}, "data": [{"smiles": "CCCCCCCCCC(=O)N[C@@H](Cc1c[nH]c2ccccc12)C(=O)N[C@H](CC(N)=O)C(=O)N[C@@H](CC(=O)O)C(=O)N[C@@H]1C(=O)NCC(=O)N[C@@H](CCCN)C(=O)N[C@@H](CC(=O)O)C(=O)N[C@H](C)C(=O)N[C@@H](CC(=O)O)C(=O)NCC(=O)N[C@H](CO)C(=O)N[C@@H]([C@H](C)CC(=O)O)C(=O)N[C@@H](CC(=O)c2ccccc2N)C(=O)O[C@@H]1C", "values": [{"measurement": "Time", "setting": "[1]", "value": 140, "unit": "s"}, {"measurement": "D", "setting": "[2]", "value": 0.78, "unit": "×10⁻⁶ cm2/s"}, {"measurement": "Time", "setting": "[3]", "value": 210, "unit": "s"}, {"measurement": "Time", "setting": "[4]", "value": 67, "unit": "s"}, {"measurement": "D", "setting": "[5]", "value": 4.7, "unit": "×10⁻⁷ cm2/sec"}, {"measurement": "Time", "setting": "[6]", "value": 40, "unit": "s"}, {"measurement": "D", "setting": "[7]", "value": 1.73, "unit": "×10⁻⁶ cm2/s"}, {"measurement": "D", "setting": "[8]", "value": 1.78, "unit": "×10⁻⁶ cm2/s"}, {"measurement": "Time", "setting": "[9]", "value": 26, "unit": "s"}, {"measurement": "Time", "setting": "[10]", "value": 60, "unit": "s"}, {"measurement": "D", "setting": "[11]", "value": 5.2, "unit": "×10⁻⁷ cm2/sec"}]}]}
